Tests used:
CysAp = assay: Urinary CysAp activity in rats, fluorometric analysis with cystinyl-β-naphthylamide; assay type: in vivo, Wistar rats
Description: (§1) All treatments were maintained during 6 weeks. […] The GluAp, […] […] A blank was performed in duplicate for each sample.

GluAp = assay: Urinary GluAp activity in rats, fluorometric analysis with glutamyl-β-naphthylamide; conditions: for GluAp urinary activity change: rats, 6 weeks treatment (8% NaCl in diet; methimazole 300 mg/l drinking water; T4 200 μg/kg/day s.c.), versus control group
Description: (§2) On the one hand, 42 male Wistar rats of 250 g in weight from the animal house of the University of Valladolid were distributed in 6 groups (n=7) with the following treatments: Control, Salt (8% NaCl in the diet), Hypothyroid (methimazole, 300 mg/l in drinking water), Hypothyroid+Salt, Hyperthyroid (daily s.c. injection of thyroxine (T4) 200 μg.kg^−1.day^−1), and Hyperthyroid+Salt.
(§3) At the end of the experiment, and after a 2-day period of adaptation to the metabolic cages, each animal was introduced in a metabolic cage during 24 hours. The dieresis was determined, and the urine was centrifuged for 10 min at 1,000 g, aliquoted and frozen at −80° C. until its use.
The GluAp, AlaAp, AspAp and CysAp activities were determined in duplicate by a fluorometric analysis using glutamyl-, alanyl-, aspartyl- and cystinyl-β-naphthylamide as substrates, respectively.
The substrates had been previously dissolved in 1 ml of DMSO and stored at -20° C.
The quantity of β-naphthylamine released as a result of the aminopeptidase activities was measured fluorometrically at an emission wavelength of 412 nm with excitation at 345 nm, taking a measurement of the fluorescence after 60 minutes, after stopping the reaction with 90 μl of 0.1 M acetate buffer.
A blank was performed in duplicate for each sample. […] The fluorescence difference between both measurements was quantified using a standard curve of β-naphthylamine dissolved in water at the concentrations of 12.5, 25, 50, 100 and 200 nmol/ml 90 μl of the incubation solution corresponding to each enzyme without the substrate were added to 20 μl of this solution, they were incubated during 60 minutes at 37° C., and 90 μl of 0.1 M acetate buffer were added. It was verified that the presence of the substrate in the incubation solutions in no way modified the fluorescence of the standard. All measurements were made in duplicate, and the linearity of the fluorescence obtained in the curve range was verified (0-200 nmol/ml).
Both for the determinations of the samples and for the blanks, reaction blanks were performed containing 20 μl of distilled water, 90 μl of incubation solution with or without substrate, respectively, and 90 μl of sodium acetate.
The specific activity of each aminopeptidase was expressed as nanomoles of hydrolyzed substrate per minute and per mg of creatinine. The linearity of the fluorescence obtained was verified with respect to hydrolysis time and creatinine content in a same sample.

AlaAp = assay: Urinary AlaAp activity in rats, fluorometric analysis with alanyl-β-naphthylamide; assay type: in vivo, Wistar rats; conditions: for AlaAp urinary activity change: rats, 6 weeks treatment (8% NaCl in diet; methimazole 300 mg/l drinking water), versus control group
Description: as §1

[1] = rats, 8% NaCl in diet, 6 weeks
Description: as §2

AspAp = assay: Urinary AspAp activity in rats, fluorometric analysis with aspartyl-β-naphthylamide; assay type: in vivo, Wistar rats
Description: as §1

[2] = Proteinuria in rats (Bio-Rad DC Protein Assay kit, Lowry's method)
Description: as §2, §3
Proteinuria was determined using a commercial kit from Bio-Rad (DC Protein Assay kit) based on Lowry's method.

[3] = 8% salt given simultaneously to hyperthyroid (T4) rats, 6 weeks, over the value of the hyperthyroid rats
[4] = rats, 6 weeks treatment (8% NaCl in diet; methimazole 300 mg/l drinking water; T4 200 μg/kg/day s.c.), versus control group
[5] = rats, 6 weeks treatment (methimazole 300 mg/l drinking water), versus control group
[6] = methimazole 300 mg/l given to rats treated with 8% salt (Hypothyroid+salt), 6 weeks, in comparison with rats treated with salt

CysAp urinary activity change (CysAp; [5])	AspAp urinary activity change (AspAp; [5])	SMILES	rise in CysAp activity (CysAp; [3])	rise in GluAp activity (GluAp; [3])	GluAp urinary activity change (GluAp)	rise in AlaAp activity (AlaAp; [3])	AlaAp urinary activity change (AlaAp)	plasma creatinine change [1]	rise in AspAp activity (AspAp; [3])	proteinuria change ([2]; 8% salt given simultaneously to hyperthyroid (T4) rats, 6 weeks)	proteinuria change [2, 4]	GluAp activity change (GluAp; [6])	AlaAp activity change (AlaAp; [6])
		[Cl-].[Na+] [Salt, NaCl]	around fivefold	more than tenfold	significant increase	more than tenfold	significant increase	not accompanied	around fivefold	great increase	not accompanied with proteinuria		
no modification	no modification	Cn1cc[nH]c1=S [methimazole, reference compound]			no modification		significantly decreased				no modification	decrease	decrease
